Laboratory results from patent US20240083851A1 (priority 2020, published 2024).

Key:
[1] = system: ovariectomized (OVX) mice; assay: Ovariectomized (OVX) mice model of osteoporosis, femur bone parameters; assay type: in vivo; settings: daily for 10 weeks; for BMD: femur
Text: (§1) An ability of LAD to treat osteoporosis was confirmed in an animal model of ovariectomized (OVX) mice commonly used as an animal model of osteoporosis.
(§2) As the positive control, parathyroid hormone (PTH)-based Forteo (Eli Lilly) used as an osteoporosis therapeutic agent through an osteogenesis-promoting mechanism, and alendronate-based Fosamax (Merck) serving as a bone resorption inhibitor, were subcutaneously administered. As the negative control, water (H2O) was orally administered, and LAD was orally administered at a concentration of 5 or 30 mg/kg (FIG. 8A). After the drug was administered daily for 10 weeks, the bone mineral density (BMD) was measured.

RUNX2 [2] = assay: Change in expression of RUNX2 in MSCs (antibody staining, fluorescence microscope); assay type: cell-based, human; settings: 0.001 μM (1 nM), once a day for 7 and 14 days, increased with concentration up to 0.1 μM
Text: (§3) Runt-related transcription factor 2 (RUNX2; core-binding factor alpha, Cbfa1) is the most important transcriptional regulatory factor for osteogenesis, and is known to be involved in osteoblast differentiation, matrix generation, and mineralization during the osteogenesis (Bruderer M, et al., Eur Cell Mater. 2014). Also, RUNX2 itself may be regulated by a bone morphogenetic protein (BMP), which is a type of cytokine (Sun J, et al., Mol Med Rep. 2015). Accordingly, it was confirmed whether LAD promotes the expression of an osteogenesis-related specific factor to induce osteogenesis.
(§4) MSCs were seeded in a 24-well plate at a concentration of 3×10^4 cells/well, and cultured for 24 hours. From the next day, the MSCs were treated with different concentrations (0.001 μM, 0.01 μM, and 0.1 μM) of LAD once a day for 7 days and 14 days. After the experiment was completed, the MSCs were stained with RUNX2 and BMP-2 antibodies, and observed using a fluorescence microscope.

BMP-2 = assay: Change in expression of BMP2 in MSCs (antibody staining, fluorescence microscope); assay type: cell-based, human; settings: 0.001 μM (1 nM), once a day for 7 and 14 days, increased with concentration up to 0.1 μM
Text: as §3, §4

osteocalcin = assay: Change in expression of osteocalcin in MSCs (antibody staining, fluorescence microscope); assay type: cell-based, human; settings: 0.001 μM, within 7 days, level similar to OIM-treated group
Protocol: Osteocalcin is expressed only in osteoblasts (Lee et al., Cell 2007), and is used as a useful biomarker for osteogenesis (Bharadwaj et al., Osteoporosis International., 2009).
An experiment was performed in the same manner as described in Experimental Example 1-2, and MSCs were then stained with an osteocalcin antibody, and observed using a fluorescence microscope.

[3] = system: phosphorylated forms of 43 kinases (ERK, Akt, WNK1); assay: Phosphokinase antibody array in MSCs; assay type: cell-based, human; settings: LAD 1 μM, 24 hours, compared to control DMSO
Protocol: To study a mechanism by which LAD differentiates MSCs into osteoblasts, related signaling was investigated.
MSCs cultured in an experimental DMEM culture medium were treated with LAD (1 μM) or the control compound (DMSO), and cultured for 24 hours. The cells were recovered, and an experiment was then performed according to a method specified in a phosphokinase antibody array kit (R&D Systems) containing antibodies that specifically recognize phosphorylated forms of 43 kinases. Then, samples were analyzed using an ImageJ (NIH, USA) program.

MSCs = assay: Osteoblast differentiation of MSCs with LAD plus kinase inhibitor (Alizarin Red); assay type: cell-based, human; settings: LAD 1 μM combined with inhibitor (1 μM) of ERK, P38 or Akt, 3 weeks, compared to LAD alone
Protocol: To further study the mechanism by which LAD differentiates MSCs into osteoblasts, an experiment was performed using a kinase inhibitor.
After MSCs were cultured, the MSCs were simultaneously treated with a kinase inhibitor (1 μM) and LAD (1 μM). Next day, the medium was exchanged, and the MSCs were simultaneously treated again with the kinase inhibitor and LAD. This procedure was repeated for 3 weeks, and the MSCs were than stained with Alizarin Red.

[4] = system: phosphorylated ERK (pERK); assay: ERK phosphorylation in MSCs after LAD treatment; assay type: cell-based, human
Protocol: Accordingly, the level of phosphorylated ERK according to time elapsed after MSCs were treated with LAD was determined.
Also, to determine whether LAD induces the ERK phosphorylation for a long period, MSCs were treated with various concentrations (0.001, 0.01, and 0.1 μM) of LAD, and the level of phosphorylated ERK (pERK) was checked after 7 days and 14 days. […] In particular, it was confirmed that the level of phosphorylated ERK (pERK) increased to a level similar to that of the positive control (OIM) even at a low concentration.

RUNX2 [5] = assay: Effect of ERK inhibitor on increase in RUNX2 expression by LAD in MSCs; assay type: cell-based, human
Protocol: ERK may induce the phosphorylation of RUNX2 to increase transcriptional activity and may be involved in stability to increase an amount of RUNX2 protein (Greenblatt et al., MB, Annu Rev Cell Dev Biol. 2013). Therefore, an increase in ERK phosphorylation by LAD may induce RUNX2 expression so that LAD can be involved in the differentiation of MSCs into osteoblasts. To verify this, an expression level of RUNX2 was determined after MSCs were treated with a combination of LAD (0.1 μM) and the ERK inhibitor PD98059 (50 μM).

RUNX2 [6] = assay: RUNX2 expression in femurs of ovariectomized mice; assay type: in vivo; settings: LAD oral, daily for 10 weeks
Text: as §1, §2
In Table 1, BMD represents bone mineral density, TV represents total volume, BV represents bone volume, Tb.Th represents trabecular thickness, and Tb.N represents trabecular number.

[7] = OVX mice, positive control subcutaneous

CC[C@H](C)[C@H](NC(=O)[C@H](CCC(=O)O)NC(=O)[C@H](CO)NC(=O)[C@@H](NC(=O)[C@@H](N)CO)C(C)C)C(=O)N[C@@H](CCC(N)=O)C(=O)N[C@@H](CC(C)C)C(=O)N[C@@H](CCSC)C(=O)N[C@@H](Cc1cnc[nH]1)C(=O)N[C@@H](CC(N)=O)C(=O)N[C@@H](CC(C)C)C(=O)NCC(=O)N[C@@H](CCCCN)C(=O)N[C@@H](Cc1cnc[nH]1)C(=O)N[C@@H](CC(C)C)C(=O)N[C@@H](CC(N)=O)C(=O)N[C@@H](CO)C(=O)N[C@@H](CCSC)C(=O)N[C@@H](CCC(=O)O)C(=O)N[C@@H](CCCN=C(N)N)C(=O)N[C@H](C(=O)N[C@@H](CCC(=O)O)C(=O)N[C@@H](Cc1c[nH]c2ccccc12)C(=O)N[C@@H](CC(C)C)C(=O)N[C@@H](CCCN=C(N)N)C(=O)N[C@@H](CCCCN)C(=O)N[C@@H](CCCCN)C(=O)N[C@@H](CC(C)C)C(=O)N[C@@H](CCC(N)=O)C(=O)N[C@@H](CC(=O)O)C(=O)N[C@H](C(=O)N[C@@H](Cc1cnc[nH]1)C(=O)N[C@@H](CC(N)=O)C(=O)N[C@@H](Cc1ccccc1)C(=O)O)C(C)C)C(C)C [Forteo, reference compound]
BV [1, 7]: 0.8791 mm^3
BV/TV [1, 7]: 5.735%
TV [1, 7]: 15.43 mm^3
Tb. N [1, 7]: 0.8018 mm
Tb. Th [1, 7]: 0.07112 1/mm
BMD [1, 7]: 0.2013 g/mL

NCCCC(O)(P(=O)(O)O)P(=O)(O)O [Fosamax, reference compound]
BV [1, 7]: 1.017 mm^3
BV/TV [1, 7]: 6.521%
TV [1, 7]: 15.51 mm^3
Tb. N [1, 7]: 0.9286 mm
Tb. Th [1, 7]: 0.06994 1/mm
BMD [1, 7]: 0.2145 g/mL

CCN1C[C@]2(OC(=O)c3ccccc3NC(C)=O)CC[C@H](OC)C34C1C(C[C@@H]32)C(=O)C[C@H](OC)[C@H]1C[C@@H]4C(=O)[C@H]1OC [LAD, (3S,6S,7S,9S,11S,16S)-1-ethyl-6,9,11-trimethoxy-8,13-dioxododecahydro-2H-3,6a,14-(epiethane[1,1,2]triyl)-7,10-methanocyclodeca[b]azocin-3(4H)-yl 2-acetaminobenzoate]
expression of RUNX2 (RUNX2 [2]): strongly induced
expression of BMP-2 (BMP-2): strongly induced
expression of osteocalcin (osteocalcin): strongly induced
phosphorylation of signaling molecules such as ERK, Akt, WNK1 [3]: strongly increased
osteoblast differentiation ability of LAD (Alizarin Red) (MSCs): inhibited
level of phosphorylated ERK (pERK) ([4]; MSCs, 0.001, 0.01 and 0.1 μM LAD, after 7 days and 14 days, similar to OIM even at low concentration): significantly increased
level of phosphorylated ERK (pERK) ([4]; MSCs, 24 hours after LAD treatment): increased
level of phosphorylated ERK (pERK) ([4]; MSCs, within 30 minutes after LAD treatment): significantly increased
expression of RUNX2 (RUNX2 [5]; LAD 0.1 μM alone, within 12 hours (same at 24 hours)): significantly increased
BV ([1]; OVX mice, LAD 5 mg/kg oral): 1.009 mm^3
BV/TV ([1]; OVX mice, LAD 5 mg/kg oral): 6.422%
TV ([1]; OVX mice, LAD 5 mg/kg oral): 15.6 mm^3
Tb. N ([1]; OVX mice, LAD 5 mg/kg oral): 0.8775 mm
Tb. Th ([1]; OVX mice, LAD 5 mg/kg oral): 0.205 1/mm
BMD ([1]; OVX mice, LAD 5 mg/kg oral): 0.2066 g/mL
BV ([1]; OVX mice, LAD 30 mg/kg oral): 1.17 mm^3
BV/TV ([1]; OVX mice, LAD 30 mg/kg oral): 7.036%
TV ([1]; OVX mice, LAD 30 mg/kg oral): 16.58 mm^3
Tb. N ([1]; OVX mice, LAD 30 mg/kg oral): 0.9485 mm
Tb. Th ([1]; OVX mice, LAD 30 mg/kg oral): 0.0739 1/mm
BMD ([1]; OVX mice, LAD 30 mg/kg oral): 0.2168 g/mL
bone mineral density compared to the negative control ([1]; OVX mice, LAD 5 or 30 mg/kg oral, versus water): significantly increased
effect on bone mineral density compared with Forteo ([1]; OVX mice, LAD oral versus Forteo subcutaneous): significantly superior to that of Forteo
osteogenesis in the femurs (tissue staining) ([1]; ovariectomized mice, LAD oral): induced osteogenesis
expression of RUNX2 in femurs (RUNX2 [6]): significantly increased

COc1cccc(-c2cc(=O)c3ccccc3o2)c1N [PD98059, reference compound]
expression of RUNX2 (RUNX2 [5]; combination of LAD 0.1 μM and PD98059 50 μM, 12 hours (same at 24 hours)): significantly decreased
